Results on one molecule are retold here after patent US20130317053A1, “EXTERNALLY-USED DRUG FOR TREATING SKIN DISORDER AND METHOD FOR PRODUCING SAME” (OSAKA UNIVERSITY, priority 2011, published 2013).

One assay relates to MITF. The assay can be described thus: expression level of mRNA of MITF in melanocytes (real-time RT-PCR). The class given is cell-based. The procedure: (§1) 1.4×10^5 melanocytes were inoculated in wells of 6-well culture plate, and a medium 254 (produced by KURABO […] LTD.; M254500) was added to the wells. Subsequently, the plate was incubated for 24 hours at a temperature of 37° C. in a 5% CO2 environment.
(§2) Sirolimus was added to the respective wells so as to have a final concentration of 0 nM (that is, no sirolimus is added to a culture medium), 1 nmol/L, 10 nmol/L, and 20 nmol/L, respectively. The plates were incubated for 24 hours or 48 hours at a temperature of 37° C. in a 5% CO2 environment.
(§3) From the wells thus incubated, the medium 254 was removed. Then, an operation of adding PBS to the wells and removing the PBS from the wells was carried out three times to wash the melanocytes with the PBS.
(§4) To the wells from which the PBS had been removed, 175 μL of an RNA lysis buffer was added. The RNA lysis buffer is attached to a kit of an SV Total RNA Solution System (manufactured by Promega Corporation; Z3105).
(§5) Melanocytes were peeled off the plate with use of a cell scraper.
(§6) The RNA lysis buffer containing melanocytes was collected into a 1.5 mL Eppendorf tube. Then, RNAs were extracted from the collected buffer.
(§7) Real-time RT-PCR was carried out with use of the RNAs to detect expression of mRNAs of MITF, mRNAs of TYR, mRNAs of TYRP1, and mRNAs of GAPDH. An expression level of the mRNAs of MITF, an expression level of the mRNAs of TYR, and an expression level of the mRNAs of TYRP1 were each calculated as a relative expression level with respect to an expression level of the mRNA of GAPD.
(§8) This experiment was carried out three times to calculate an average value and a standard deviation of relative expression levels of mRNAs of each of MITF, TYR, and TYRP1. Whether or not there was a statistically significant difference between test results obtained with use of the respective external medicines was checked by calculating a p value with use of a Student's t-test having no correspondence. In a case where the p value was less than 0.05, a statistically significant difference was recognized.
(§9) To detect expression of the mRNAs of MITF, TagMan® Gene Expression Assays (produced by Applied biosystems, Inc.; Hs00165156_m1) was used. To detect expression of the mRNAs of TYR, TagMan® Gene Expression Assays (produced by Applied biosystems, Inc.; Hs00165976_m1). To detect expression of the mRNAs of TYRP1, TagMan® Gene Expression Assays (produced by Applied biosystems, Inc.; Hs00167051_m1) was used. To detect expression of the mRNAs of GAPDH, TagMan® Gene Expression Assays (produced by Applied biosystems, Inc.; Hs99999905_m1) was used.

For another assay, the system named is TYR. As to the kind of experiment: expression level of mRNA of TYR in melanocytes (real-time RT-PCR). The class given is cell-based. The procedure:
as §1, §2, §3, §4, §5, §6, §7, §8, §9

A further assay has as its system TYRP1. As to the kind of experiment: expression level of mRNA of TYRP1 in melanocytes (real-time RT-PCR). The class given is cell-based. The procedure: as §1, §2, §3, §4, §5, §6, §7, §8, §9
Assay [1] relates to VEGF. As to the kind of experiment: inhibition of VEGF expression in cell of angiofibroma. The class given is cell-based, human. The procedure:
(§10) A cell of angiofibroma, a human fibroblast, and HaCat, each of which was isolated from a patient with tuberous sclerosis complex, were used. Isolation of the cell of angiofibroma was carried out by removing angiofibroma from a patient who wished the angiofibroma to be removed and then using the primary culturing method. […] HaCat was purchased from German Cancer Research Center (dkfz). The cells obtained from the respective patients were used with the patients' consent.
(§11) The cell of angiofibroma, the human fibroblast, and HaCat were each cultured with use of a DME culture medium at a temperature of 37° C. in a 5% CO2 environment. During the culture of these cells, sirolimus was added to each of the culture mediums so as to have a final concentration of 0 nM (that is, no sirolimus is added to a culture medium (a control)), 1 nM, 10 nM, or 20 nM. The cells were each incubated again at a temperature of 37° C. in a 5% CO2 environment, and a culture supernatant was collected […] after sirolimus was added. A concentration of VEGF in the collected culture supernatant was measured with use of a kit (Quantikine® Human VEGF manufactured by R&D SYSTEMS®) for detecting VEGF.

Assay [2] relates to VEGF. As to the kind of experiment: inhibition of VEGF expression in human fibroblast. The class given is cell-based. As to conditions: 20 nM, 72 hours. The procedure: as §10, §11
In assay [3] the test system is VEGF. The assay can be described thus: inhibition of VEGF expression in HaCat. The class given is cell-based. The note with it: 20 nM, 72 hours. The procedure: as §10, §11

As to `CO[C@H]1C[C@@H]2CC[C@@H](C)[C@@](O)(O2)C(=O)C(=O)N2CCCC[C@H]2C(=O)O[C@H]([C@H](C)C[C@@H]2CC[C@@H](O)[C@H](OC)C2)CC(=O)[C@H](C)/C=C(\C)[C@@H](O)[C@@H](OC)C(=O)[C@H](C)C[C@H](C)/C=C/C=C/C=C/1C` [sirolimus], the “relative expression levels of MITF” value in the assay with MITF (1 nM, 24 hours, relative to GAPDH, untreated 24 h 100.00±3.37) turned out to be 152.48±3.47; in the assay on MITF (1 nM, 48 hours, untreated 48 h 107.95±1.38) it was 129.41±3.43; with MITF (20 nM, 24 hours, untreated 24 h 100.00±3.37), 152.18±14.75; in the assay with MITF (20 nM, 48 hours, untreated 48 h 107.95±1.38), 141.56±3.52. Moreover, the “relative expression levels of TYR” value with TYR (1 nM, 24 hours, untreated 24 h 0.640±0.036) came out at 0.820±0.047; in the assay with TYR (1 nM, 48 hours, untreated 48 h 0.771±0.009), 0.760±0.044; with TYR (20 nM, 24 hours, untreated 24 h 0.640±0.036), 0.921±0.029; in the assay on TYR (20 nM, 48 hours, untreated 48 h 0.771±0.009), 0.858±0.022. For the same molecule, the “relative expression levels of TYRP” value was 1.333±0.055 in the assay with TYRP1 (1 nM, 24 hours, untreated 24 h 1.031±0.027); 1.450±0.028 in the assay with TYRP1 (1 nM, 48 hours, untreated 48 h 1.338±0.029); 1.652±0.031 in the assay on TYRP1 (20 nM, 24 hours, untreated 24 h 1.031±0.027); 1.514±0.124 in the assay with TYRP1 (20 nM, 48 hours, untreated 48 h 1.338±0.029). Further, the “concentration of VEGF in culture supernatant” value was found to be 113.1428 pg/mL in the assay on VEGF [1] (1 nM, 48 hours, untreated 260.2857); 92.4285 pg/mL in the assay on VEGF [1] (10 nM, 48 hours, untreated 260.2857); 168 pg/mL with VEGF [1] (20 nM, 72 hours, control 858.4); 501.3 pg/mL in the assay on VEGF [2] (control 1492.7); 749.9 pg/mL with VEGF [3] (control 1849.9). Further, the “concentration of VEGF decreased to (% of untreated)” value is “about 20%” in the assay with VEGF [1] (20 nM, 72 hours); “about 30%” in the assay on VEGF [2]; “about 40%” in the assay on VEGF [3]. Also, the rate of decrease in concentration of VEGF (ratio treated/untreated) in the assay on VEGF [1] (20 nM, 72 hours) came out at 0.196; in the assay on VEGF [2], 0.336; with VEGF [3], 0.405.
